Test results taken from publication PMC3753754, “Andrographis paniculata Extract and Andrographolide Modulate the Hepatic Drug Metabolism System and Plasma Tolbutamide Concentrations in Rats” (Evidence-based Complementary and Alternative Medicine : eCAM, 2013).

Tests used:
[1] = Pharmacokinetics of tolbutamide in control, APE-pretreated and andrographolide-pretreated rats; format: in vivo, Sprague-Dawley rats; conditions: male, Sprague-Dawley, rat, plasma, control rats (methyl cellulose vehicle for 5 days), tolbutamide 20 mg/kg oral
Procedure: Seven-week-old male Sprague-Dawley rats cannulated in the jugular vein were purchased from the Bio LASCO Experimental Animal Center (Taipei, Taiwan). The animals were fed a standard rat diet and were randomly assigned into control, APE-treated, and andrographolide-treated groups (n = 5). Rats were housed in plastic cages in a room kept at 23 ± 1°C and 60 ± 5% relative humidity with a 12-hour light and dark cycle. Food and drinking water were available ad libitum. Control rats were orally administered methyl cellulose. […] After the 5th daily dose, rats were deprived of food overnight. On day 6, a 20 mg/kg oral dose of tolbutamide, as a solution in Cremophor EL (polyoxyl 35 hydrogenated castor oil, Sigma)/ethanol/water (30/10/60, v/v/v), was administered to each rat. After the administration of tolbutamide, serial blood samples were collected up to 12 h after dosing from each rat. The animals were then killed by exsanguination, and the livers were collected.
Tolbutamide was prepared in a solution of Cremophor EL/ethanol/water (30/10/60, v/v/v). After administration, blood samples (~200 μL) were collected from the tail vein of each rat at 0.25, 0.5, 1, 2, 4, 8, and 12 h after dosing. Plasma was separated from blood by centrifugation (4000 ×g for 20 min at 4°C). An aliquot of 50 μL plasma was mixed with 100 μL acetonitrile and then centrifuged at 10,000 ×g for 15 min at 4°C. The supernatant was used to determine the concentration of tolbutamide by LC/MS. Calibration standards of tolbutamide were prepared by serial dilution of a tolbutamide stock solution with blank plasma, yielding final concentrations of tolbutamide ranging from 1 to 300 μg/mL of plasma.
The HPLC system consisted of an Agilent 1100 series LC System (Palo Alto, CA) and an Agilent Zorbax Eclipse XDB-C8 column (3 μm, 3.0 mm × 150 mm), interfaced to an Agilent MSD mass spectrometer equipped with an electrospray ionization source. Column temperature was set at 25°C. The initial mobile phase composition was 30% acetonitrile containing 10 mM ammonium acetate (solvent A) and 70% of 0.1% formic acid (solvent B). The following gradient system was used: 30% A to 50% A (0-1 min), 50% A to 98% A (1–3 min), 98% A (3–9 min), 98% A to 30% A (9-10 min), and 30% A (10–15 min). The flow rate was 0.5 mL/min. Sample injection volume was 10 μL. The MS data acquisition was via selected ion monitoring. The positive ion of the testing compound was selected, and the peak size was measured. The area under the plasma tolbutamide concentration versus time curve (AUC) was calculated by using the trapezoidal method.

[2] = Plasma tolbutamide concentration in high-fat diet-induced obese mice; format: in vivo, C57BL/6 mice; conditions: C57BL/6, mouse, 2 h after dosing 20 mg/kg oral tolbutamide, control obese mice (methyl cellulose vehicle)
Procedure: Eleven-month-old high-fat diet-fed (45% of energy from fat; Research Diet Inc., New Brunswick, NJ) C57BL/6 mice were obtained from the National Health Research Institute (Miaoli, Taiwan). Control mice were orally administered 0.5% methyl cellulose (10 mL/kg). […] After the 5th daily dose, the mice were deprived of food overnight. On day 6, a 20 mg/kg oral dose of tolbutamide, as a solution in Cremophor EL/ethanol/water (30/10/60, v/v/v), was administered to each mouse. Thirty minutes later, a 1 g/kg dose of glucose, as a solution in water, was administered orally according to the method described by Zong et al.. Serial blood samples were collected up to 8 h after the glucose dose from each mouse. The animals were then killed by exsanguination and the livers collected.
Tolbutamide was prepared in a solution of Cremophor EL/ethanol/water (30/10/60, v/v/v). […]
The HPLC system consisted of an Agilent 1100 series LC System (Palo Alto, CA) and an Agilent Zorbax Eclipse XDB-C8 column (3 μm, 3.0 mm × 150 mm), interfaced to an Agilent MSD mass spectrometer equipped with an electrospray ionization source. […] The positive ion of the testing compound was selected, and the peak size was measured. The area under the plasma tolbutamide concentration versus time curve (AUC) was calculated by using the trapezoidal method.

MRT [1]: 7.9 ± 1.6 h
AUC(0-t) ([1]; read-out: AUC0–12 h of plasma tolbutamide): 1390 ± 262 µg·h/mL
Cmax ([1]; read-out: C max of tolbutamide): 151 ± 21 µg/mL
Tmax ([1]; read-out: T max of tolbutamide): 1.6 ± 0.5 h
concentration at 2 h [2]: 124 ± 32 µg/mL
Structure (SMILES): CCCCNC(=O)NS(=O)(=O)c1ccc(C)cc1 [tolbutamide]
